According to patent US12030896B2, “PIKfyve inhibitors” (Mayo Foundation for Medical Education and Research, priority 2018, dated 2024):
“Also recorded” adds a separate entry of the source.

Legend:
U251 glioblastoma cell = experiment: Cell killing in combination with vemurafenib; format: cell-based, human
Procedure: A 25 mM stock of vemurafenib (obtained from Selleckchem) in DMSO was diluted to 2× the indicated concentration into the cell suspension immediately prior to plating the cell suspension onto the pre-diluted Example 1 or Example 3, to result in a final 1× concentration of both compounds.
See FIG. 13 for showing of U251 glioblastoma cell killing by Example 1 alone or in the presence of 10 μM vemurafenib over a 72 hour time course.

[1] = test system: Human lymphoma cell lines; experiment: Killing of human lymphoma cell lines; format: cell-based; details: 72 hours
Procedure: Human lymphoma cell lines were incubated for 72 hours with various concentrations of the compound, and survival determined by cell counting or by ATP assay, as shown in FIG. 7. In the lymphoma experiments, RPMI media (Life Technologies) was used as the base formulation for “complete” media. Trypsin was not needed for these non-adherent cell lines. For the “cell-counting” data, cells were pipetted up and down to evenly disburse, then 10 μL of the suspension was counted using an Accuri C6 cytometer, using on forward and side scatter to gate on a viable population.

murine lymphoma cells = experiment: Vacuolization seen by light microscopy; format: cell-based
Procedure: Vacuolization due to treatment with Example 1 compound was extremely rapid, becoming visible by light microscopy within 30 minutes or less.

468 kinases = experiment: Kinase selectivity panel (Treespot dendrogram); format: binding; details: for number of kinases blocked to 1% activity level / number of kinases blocked to 10% activity level / number of kinases blocked to 35% activity level: 5000 nM; for selectivity for PIKfyve: comparison of Example 1, Example 3 and apilimod
Procedure: In contrast, 50 nM Apilimod inhibited two kinases to 1% or 10%, and 3 kinases to 35% of control. To examine non-specific binding at higher concentrations, Example 1, Example 3, and Apilimod were tested at 5000 nM. […] PIKfyve is represented at the bottom left of each dendrogram.

[2] = test system: Glioblastoma (T98G, U251) or colorectal cancer cell lines (HT29, RKO, HCT116); experiment: Killing of glioblastoma and colorectal cancer cell lines by Example 3; format: cell-based
Procedure: Experiments were performed using DMEM-based media for the glioblastoma lines and RMPI-based media for the colorectal lines.

SMILES | cell killing on addition of vemurafenib (U251 glioblastoma cell; low concentrations of Example 1 (e.g., 0.5 μM) + 10 μM vemurafenib, 72 hour) | cell killing [1] | time until vacuolization visible by light microscopy (murine lymphoma cells) [min] | number of kinases blocked to 1% of control (468 kinases; 50 nM, 468 kinases) | number of kinases blocked to 10% of control (468 kinases; 50 nM, 468 kinases) | number of kinases blocked to 35% of control (468 kinases; 50 nM, 468 kinases) | number of kinases blocked to 1% activity level (468 kinases) | number of kinases blocked to 10% activity level (468 kinases) | number of kinases blocked to 35% activity level (468 kinases) | selectivity for PIKfyve (468 kinases) | killing U251 in combination with vemurafenib (U251 glioblastoma cell) | sensitivity to killing [2]
Cc1ccc(Nc2nc(N/N=C/c3c[nH]c4ccccc34)nc(N3CCOCC3)n2)cc1 [Example 1, (E)-4-(2-((1H-indol-3-yl)methylene)hydrazinyl)-6-morpholino-N-(p-tolyl)-1,3,5-triazin-2-amine] | significantly improves cell killing | killing | ≤ 30 | 1 | did not block other kinases | did not block other kinases | 2 | 4 | 11 | more selective | – | –
Cc1ccc(Nc2nc(N/N=C/c3c[nH]c4ccccc34)cc(N3CCOCC3)n2)cc1 [Example 3, (E)-4-(2-((1H-indol-3-yl)methylene)hydrazinyl)-6-morpholino-N-(p-tolyl)pyrimidin-2-amine] | – | – | – | – | – | – | 1 | 1 | 4 | more selective; also recorded: highest selectivity | synergistic | sensitive to killing
